Legend:
[1] = target: p38α MAP kinase (Homo sapiens, UniProt Q16539); experiment: phosphorylation of myelin basic protein (MBP) by p38α; format: biochemical
Experimental: The TTM2001.101.A09 bi-ligand compound and the fragments from which it was constructed were tested as inhibitors of p38α enzymatic activity in an assay measuring phosphorylation of myelin basic protein (MBP) by p38α.

[2] = target: unactivated p38α MAP kinase (Homo sapiens, UniProt Q16539); experiment: WaterLOGSY screen of PBBA structure analogs; format: binding; conditions: 10 to 30 micromolar p38α, 0.1 to 1.0 millimolar compound, 4° C.
Text: A library of 29 PBBA structure analogs was screened against unlabeled p38α MAP kinase (p38α) as follows. Samples containing 10 to 30 micromolar concentration of unactivated p38α MAP kinase and 0.1 to 1.0 millimolar concentration of one of the PBBA structure analogs were obtained. The samples were screened using WaterLOGSY with saturations times of 2 s (frequency selective excitation via a train of 232 6 ms it pulses with a GAUSS profile at an 80 Hz RF field strength) with […] using WATERGATE at 4° C. WaterLOGSY is further described in Dalvit et al. J. Biomol. NMR 21:349-59 (2001) Dalvit et al. J. Magn. Res. B112:282-288 (1996) and Dalvit et al., J. Biomol. NMR 11:437-444 (1998).

[3] = target: ATP site of p38α (Homo sapiens, UniProt Q16539); experiment: fluorescence polarization displacement of fluorescently tagged staurosporine; format: binding
[4] = target: T1, p38α (Homo sapiens, UniProt Q16539); experiment: line broadening in 1D 1H NMR spectra; format: binding; design: dose or concentration left out as unconfirmed; conditions: 50 micromolar compound
Experimental: The ability of TTM2001.101.A09 to bind to p38α was determined by comparing the degree of line broadening in 1D ^1H NMR spectra for the compound in the presence of p38α compared to in the absence of p38α. […] (FIG. 4b) compared to the spectrum obtained for 50 micromolar of TTM2001.101.A09 in the absence of p38α (FIG. 4a), indicative of tight binding between p38α and TTM2001.101.A09.

[5] = target: T1, p38α; experiment: WaterLOGSY competition experiments; format: binding
Text: A peptide having the sequence […] (SEQ ID NO:1) is a known phosphorylation substrate for p38 as described, for example, in Chen et al. Biochemistry 39:2079-2087 (2000). […] This site is shown in the lower panel of FIG. 7, and is referred to as the SL (specificity ligand) site, since extending a bi-ligand library into this site off of an ATP mimic might provide additional specificity.

p38α MAP kinase, sequence (Q16539 whole entry, the tested form may be a part): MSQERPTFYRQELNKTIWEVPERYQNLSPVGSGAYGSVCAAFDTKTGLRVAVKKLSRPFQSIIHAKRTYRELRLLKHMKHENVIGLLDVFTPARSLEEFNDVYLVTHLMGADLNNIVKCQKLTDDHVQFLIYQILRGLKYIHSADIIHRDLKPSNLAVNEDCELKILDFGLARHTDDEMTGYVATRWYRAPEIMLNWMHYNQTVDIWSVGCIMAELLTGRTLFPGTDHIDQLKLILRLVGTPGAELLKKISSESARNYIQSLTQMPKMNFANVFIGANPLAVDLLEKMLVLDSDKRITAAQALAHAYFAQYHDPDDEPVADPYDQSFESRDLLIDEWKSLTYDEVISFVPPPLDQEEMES
T1 sequence (Q16539 whole entry): as the sequence (Q16539 whole entry, the tested form may be a part) above
unactivated p38α MAP kinase, sequence (Q16539 whole entry): as the sequence (Q16539 whole entry, the tested form may be a part) above
ATP site of p38α, sequence (Q16539 whole entry): as the sequence (Q16539 whole entry, the tested form may be a part) above

CCCCc1ccc(C(=O)O)cc1 [PBBA, p-butyl benzoic acid]
inhibition of phosphorylation of MBP protein by p38α [1]: inhibit phosphorylation of MBP protein by p38α | cross-saturation effects with p38α (binding) [2]: showed cross-saturation effects with p38α indicating binding to the protein | displacement of fluorescently tagged staurosporine [3]: not able to displace a fluorescently tagged staurosporine

O=C(O)c1ccc(CCCCCCSCc2cc(-n3cnc4cc(C(=O)O)ccc43)ccc2F)cc1 [TTM2001.101.A09]
tighter than either of the starting fragments ([1]; IC50 compared with starting fragments PBBA and TTM2001.082.B09): greater than 100 fold | Kd ([1]; correction of the IC50 for high ATP concentration, read-out: Kd for binding between p38α and compound): ~300 nM | IC50 ([1]; inhibition of MBP phosphorylation by p38α): 1700 nM | line broadening in presence of p38α (binding) [4]: significant line-broadening

IPTTPITTTYFFFKKK [peptide, known phosphorylation substrate for p38]
displacement of PBBA from p38α [5]: could not displace PBBA from p38α
